Assay results from patent US20260285853A1, “COMPOUNDS AND METHODS FOR MODULATING SPLICING” (REMIX THERAPEUTICS INC., priority 2023, published 2026).
Structures can show the parent of a compound that is named as a salt.

What was measured:
Assay type in all cases: cell-based
[1] = tested on: HTT mRNA; test: Gene panel canonical junction qPCR assay, decrease in CJ mRNA, Table 3; details: decrease in canonical junction (CJ) mRNA, gene panel qPCR, Table 3
Procedure, shortened: (§1)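 A673 (DMEM, 10% FBS, 15,000 cells/well) or K562 (IMDM, 10% FBS) cells treated 24 h at 37 °C with 11-point 3-fold dilutions, top 10 uM, DMSO ≤0.25%. Canonical exon-exon junction mRNA measured by RT-qPCR, normalized to GAPDH, GUSB or PPIA and DMSO (ΔΔCt); IC50 from 4-parameter logistic fit.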

[2] = tested on: MYB mRNA; test: as above; details: decrease in canonical junction (CJ) mRNA, gene panel qPCR, Table 3
Procedure, shortened: as §1

[3] = tested on: SMN2 mRNA; test: as above; details: decrease in canonical junction (CJ) mRNA, gene panel qPCR, Table 3
Procedure, shortened: as §1

[4] = tested on: SH-SY5Y (human neuroblastoma) cells; test: Cell viability, Cell Titer Glo 2.0 assay; details: read-out: Viability SHSY5Y.3 GI50
Procedure, shortened: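 Toxicity screen in SH-SY5Y cells. Compounds were serially diluted in DMSO and then in medium, giving 0.1% DMSO final. Viability was read with CellTiter-Glo 2.0 after 72 h at 37 °C, 5% CO2, against medium-only blank wells.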

[5] = tested on: MYB mRNA; test: Splicing RT-qPCR assay (THP), Table 2A; details: Table 2A (THP); for AC50: AJ mRNA increase, read-out: MYB AJ (increase in alternative junction mRNA, AC50); for IC50: CJ mRNA decrease, read-out: MYB CJ (decrease in canonical junction mRNA, IC50)
[6] = tested on: HTT mRNA; test: Splicing RT-qPCR assay, canonical (CJ) and alternative (AJ) junction mRNA, K562 cells; details: Homo sapiens, K562.3 cells, 24 hours; for AC50: read-out: HTT AJ (AC50, increase in AJ mRNA); for IC50: read-out: HTT CJ (IC50, decrease in CJ mRNA)
Procedure: (§2) Compounds described herein were used to modulate RNA transcript abundance in cells. The expression of a target mRNA was measured by detecting the formation of an exon-exon junction in the canonical transcript (CJ). A compound mediated exon-inclusion event was detected by observing an increase in formation of a new junction with an alternative exon (AJ). Real-time qPCR assays were used to detect these splicing switches and interrogate the potency of various compounds towards different target genes. A high-throughput real time quantitative PCR (RT-qPCR) assay was developed to measure these two isoforms of the mRNA (CJ and AJ) for exemplary genes, such as HTT, SMN2, and MYB, together with a control housekeeping gene, GAPDH or GUSB or PPIA, used for normalization. Briefly, the A673 or K562 cell line was treated with various compounds described herein (e.g., compounds of Formula (I)). After treatment, the levels of the HTT, MYB, or SMN2 mRNA targets were determined from each sample of cell lysate by cDNA synthesis followed by qPCR.
(§3) • Cells-to-CT 1-step kit: ThermoFisher A25602, Cells-to-CT lysis reagent: ThermoFisher 4391851C, TaqMan™ Fast Virus 1-Step Master Mix: ThermoFisher 4444436 • GAPDH: VIC-PL, ThermoFisher 4326317E (Assay: Hs99999905_m1)—used for K562/suspension cell lines • GUSB: VIC-PL, ThermoFisher 4326320E (Assay: Hs99999908_m1)—used for K562/suspension cell lines • PPIA: VIC-PL, ThermoFisher 4326316E (Assay: Hs99999904_m1)—used for A673/adherent cell lines
(§4) The K562 cell line was cultured in IMDM with 10% FBS. For K562, cells were diluted with full growth media and plated in either a 96-well plate (50,000 cells in 50 uL media per well) or a 384-well plate (8,000-40,000 cells in 45 uL media per well). An 11-point 3-fold serial dilution of the compounds were made in DMSO then diluted in media in an intermediate plate. Compound was transferred from the intermediate plate to the cell plate with the top dose at a final concentration of 10 uM in the well. Final DMSO concentration was kept at or below 0.25%. Final volume was 100 uL for 96-well plate and 50 uL for 384-well plate. The cell plate was then placed in an incubator at 37° C. with 5% CO2 for 24 hours.
(§5) The cells were then gently washed with 50 uL-100 uL cold PBS before proceeding to addition of lysis buffer. 30 uL-50 uL of room temperature lysis buffer with DNAse I (and optionally RNAsin) was added to each well. Cells were shaken/mixed thoroughly at room temperature for 5-10 minutes for lysis to take place and then 3 uL-5 uL of room temperature stop solution was added and wells were shaken/mixed again. After 2-5 minutes, the cell lysate plate was transferred to ice for RT-qPCR reaction setup. The lysates could also be frozen at −80° C. for later use.
(§6) In some cases, a direct lysis buffer was used. An appropriate volume of 3× lysis buffer (10 mM Tris, 150 mM NaCl, 1.5%-2.5% Igepal and 0.1-1 U/uL RNAsin, pH 7.4) was directly added to either K562 or A673 cells in media and mixed by pipetting 3 times. The plates were then incubated at room temperature with shaking/rocking for 20-50 minutes to allow for lysis to take place. After this time, the cell lysate plate was transferred to ice to set up for the RT-qPCR reactions. The lysates could also be frozen at −80° C. for later use.
(§7) To set up 10 uL RT-qPCR reactions, cell lysates were transferred to 384-well qPCR plates containing the master mix according to the table below. The plates were sealed, gently vortexed, and spun down before the run. The volumes were adjusted accordingly in some instances where the reaction was carried in 20 uL. The table below summarizes the components of the RT-qPCR reactions:
(§8) The RT-qPCR reaction was performed using a QuantStudio (ThermoFisher) under the following fast cycling conditions. All samples and standards were analyzed at least in duplicate. In some instances, bulk room temperature (RT) step of 5-10 minutes was completed for all plates before proceeding with qPCR. […]

[7] = tested on: MYB mRNA; test: as above; details: Homo sapiens, K562.3 cells, 24 hours; for AC50: read-out: MYB AJ (AC50, increase in AJ mRNA); for IC50: read-out: MYB CJ (IC50, decrease in CJ mRNA)
Procedure: as §2, §3, §4, §5, §6, §7, §8

SMILES | IC50 [1] [µM] | IC50 [2] [nM] | IC50 [3] [nM] | GI50 [4] [nM] | AC50 [5] [nM] | IC50 [5] [nM] | AC50 [6] [µM] | IC50 [6] [µM] | AC50 [7] [nM] | IC50 [7] [nM]
CN[C@H]1CCN(c2c(OC)cc(C(=O)Nc3cc(F)c4nc(C)cn4c3)c3nn(C)cc23)C1 [Compound 137, N-(8-fluoro-2-methyl-imidazo[1,2-a]pyridin-6-yl)-5-methoxy-2-methyl-4-[(3S)-3-(methylamino)pyrrolidin-1-yl]indazole-7-carboxamide] | > 10 | > 10000 | 100 to 1000 | 1000 to 10000 | > 10000 | > 10000 | > 10 | > 10 | > 10000 | > 10000
Cc1cn2cc(C(=O)Nc3c(F)cc(N4CCNCC4)c4cn[nH]c34)cc(F)c2n1 [Compound 267] | > 10 | > 10000 | > 10000 | > 10000 | > 10000 | > 10000 | > 10 | > 10 | > 10000 | > 10000
Cc1cn2cc(NC(=O)c3ccc(N4CC[C@@H](NCC5COC5)C4)c4cn(C)nc34)cc(F)c2n1 [Compound 104, N-(8-fluoro-2-methylimidazo[1,2-a]pyridin-6-yl)-2-methyl-4-[(3R)-3-[(oxetan-3-ylmethyl)amino]pyrrolidin-1-yl]indazole-7-carboxamide] | 1 to 10 | < 100 | < 100 | 100 to 1000 | < 100 | < 100 | 1 to 10 | 1 to 10 | < 100 | < 100
CCNC12CC(C1)N(c1ccc(C(=O)Nc3cc(F)c4nc(C)cn4c3)c3nn(C)cc13)C2 [Compound 136, 4-[4-(ethylamino)-2-azabicyclo-[2.1.1]hexan-2-yl]N-(8-fluoro-2-methylimidazo[1,2-a]pyridin-6-yl)-2-methyl-indazole-7-carboxamide] | 1 to 10 | 100 to 1000 | < 100 | 100 to 1000 | 100 to 1000 | 100 to 1000 | 1 to 10 | 1 to 10 | 100 to 1000 | 100 to 1000
CNC12CC(C1)N(c1ccc(C(=O)Nc3cc(F)c4nc(C)cn4c3)c3nn(C)cc13)C2 [Compound 135, N-(8-fluoro-2-methyl-imidazo[1,2-a]pyridin-6-yl)-2-methyl-4-[4-(methylamino)-2-azabicyclo[2.1.1]hexan-2-yl]-indazole-7-carboxamide] | 0.1 to 1 | 100 to 1000 | < 100 | 100 to 1000 | < 100 | 100 to 1000 | 1 to 10 | 0.1 to 1 | 100 to 1000 | 100 to 1000
CCN[C@H]1CCN(c2cc(OC)c(C(=O)Nc3cc(F)c4nc(C)cn4c3)c3nn(C)cc23)C1 [Compound 146] | > 10 | > 10000 | 1000 to 10000 | > 10000 | > 10000 | > 10000 | > 10 | > 10 | > 10000 | > 10000
CCNC1CCN(c2cc(F)c(C(=O)Nc3cn4cc(C)nc4c(F)c3OC)c3[nH]ncc23)CC1 [Compound 173, 4-[4-(ethylamino)-1-piperidyl]-6-fluoro-N-(8-fluoro-7-methoxy-2-methyl-imidazo[1,2-a]pyridin-6-yl)-1H-indazole-7-carboxamide] | 1 to 10 | < 100 | < 100 | < 100 | < 100 | < 100 | 1 to 10 | 1 to 10 | < 100 | < 100
COCCN[C@H]1CCN(c2ccc(C(=O)Nc3cc(F)c4nc(C)cn4c3)c3nn(C)cc23)C1 [Compound 112, N-(8-fluoro-2-methyl-imidazo[1,2-a]pyridin-6-yl)-4-[(3S)-3-(2-methoxyethylamino)pyrrolidin-1-yl]-2-methyl-indazole-7-carboxamide] | 1 to 10 | 100 to 1000 | < 100 | 1000 to 10000 | – | – | > 10 | 1 to 10 | < 100 | 100 to 1000
Cc1cn2cc(NC(=O)c3ccc(N4CC[C@H](NCCO)C4)c4cn(C)nc34)cc(F)c2n1 [Compound 115, N-(8-fluoro-2-methylimidazo-[1,2-a]-pyridin-6-yl)-4-[(3S)-3-(2-hydroxy-ethylamino)-pyrrolidin-1-yl]-2-methylindazole-7-carboxamide] | 1 to 10 | 100 to 1000 | < 100 | 1000 to 10000 | – | – | 1 to 10 | 1 to 10 | 100 to 1000 | 100 to 1000
CCNC1CCN(c2ccc(C(=O)Nc3cc(F)c4nc(C)cn4c3)c3[nH]ccc23)CC1 [Compound 172, 4-[4-(ethylamino)piperidin-1-yl]-N-(8-fluoro-2-methylimidazo[1,2-a]pyridin-6-yl)-1H-indole-7-carboxamide] | > 10 | > 10000 | 1000 to 10000 | > 10000 | – | – | > 10 | > 10 | 1000 to 10000 | > 10000
Cc1cn2cc(NC(=O)c3ccc(N4CC[C@@H]5CNCC[C@@H]54)c4cn(C)nc34)cc(F)c2n1 (stereo in doubt) [Compound 101, N-(8-fluoro-2-methyl-imidazo[1,2-a]-pyridin-6-yl)-2-methyl-4-(octahydro-pyrrolo[3,2-c]-pyridin-1-yl)indazole-7-carboxamide hydrochloride] | 1 to 10 | 100 to 1000 | < 100 | 1000 to 10000 | – | – | 1 to 10 | 1 to 10 | 100 to 1000 | 100 to 1000
CCNC1CCN(c2ccc(C(=O)Nc3cn4cc(C)nc4c(F)c3OC)c3[nH]ccc23)CC1 [Compound 171, 4-[4-(ethylamino)piperidin-1-yl]-N-(8-fluoro-7-methoxy-2-methylimidazo[1,2-a]pyridin-6-yl)-1H-indole-7-carboxamide] | > 10 | 1000 to 10000 | 1000 to 10000 | > 10000 | – | – | > 10 | > 10 | > 10000 | 1000 to 10000
